The source of these data is patent US12522595B2, “Bicyclic ether O-glycoprotein-2-acetamido-2-deoxy-3-D-glucopyranosidase inhibitors” (BIOGEN MA INC., priority 2019, dated 2026).

This assay has as its target T1, Recombinant full length human OGA enzyme (Homo sapiens, UniProt O60502).
T1 construct: Recombinant full length human OGA enzyme was purchased from Origene; purchased Origene
T1 sequence (O60502 1-916): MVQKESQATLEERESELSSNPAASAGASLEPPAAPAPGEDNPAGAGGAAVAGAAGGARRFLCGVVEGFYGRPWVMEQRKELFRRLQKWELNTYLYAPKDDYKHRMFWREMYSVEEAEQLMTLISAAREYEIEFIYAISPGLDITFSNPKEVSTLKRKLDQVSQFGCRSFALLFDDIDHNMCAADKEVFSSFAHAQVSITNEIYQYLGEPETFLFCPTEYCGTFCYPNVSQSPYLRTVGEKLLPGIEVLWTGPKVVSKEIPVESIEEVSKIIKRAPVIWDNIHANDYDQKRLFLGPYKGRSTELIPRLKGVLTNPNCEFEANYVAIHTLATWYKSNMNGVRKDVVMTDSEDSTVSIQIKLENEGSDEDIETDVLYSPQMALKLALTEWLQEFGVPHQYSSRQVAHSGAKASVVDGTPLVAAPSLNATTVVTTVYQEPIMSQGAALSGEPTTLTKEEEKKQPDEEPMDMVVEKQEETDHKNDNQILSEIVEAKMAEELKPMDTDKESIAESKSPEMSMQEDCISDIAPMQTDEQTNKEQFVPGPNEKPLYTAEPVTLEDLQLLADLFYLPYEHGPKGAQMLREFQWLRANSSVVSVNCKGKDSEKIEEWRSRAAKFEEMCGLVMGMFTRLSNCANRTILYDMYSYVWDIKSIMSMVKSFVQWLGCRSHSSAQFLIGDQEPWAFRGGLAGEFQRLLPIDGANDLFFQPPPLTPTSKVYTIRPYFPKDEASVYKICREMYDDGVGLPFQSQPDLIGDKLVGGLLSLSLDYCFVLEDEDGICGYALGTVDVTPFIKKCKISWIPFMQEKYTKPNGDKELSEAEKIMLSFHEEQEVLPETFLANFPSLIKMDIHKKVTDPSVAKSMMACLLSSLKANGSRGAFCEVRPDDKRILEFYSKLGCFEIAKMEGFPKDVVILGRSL
Kind of assay: OGA enzyme inhibition biochemical assay. Conditions: 1 nM OGA, 100 μM 4-MUGlcNAc (Km), pH 6.4, 90 minutes at room temperature, 10-point dose-response from 20 μM. Here is the method: N-(5-(((2S,4R)-4-([1,2,4]triazolo[4,3-a]pyrazin-3-yloxy)-2-methylpyrrolidin-1-yl)methyl)-4-fluorothiazol-2-yl)acetamide: The title compound was prepared in an analogous manner as Example 172 from 3-bromo-[1,2,4]triazolo[4,3-a]pyrazine. LCMS (ESI): [M+H] 392. ^1H NMR (600 MHz, CHLOROFORM-d) δ 10.75 (br s, 1H), 9.04 (s, 1H), 9.03 (s, 1H), 7.24 (s, 1H), 4.99-5.06 (m, 1H), 4.01 (d, J=14.49 Hz, 1H), 3.64 (d, J=14.67 Hz, 1H), 3.40 (d, J=11.55 Hz, 1H), 2.75 (dd, J=5.78, 11.46 Hz, 1H), 2.61-2.72 (m, 2H), 2.32 (s, 4H), 1.84-1.92 (m, 1H), 1.30 (d, J=5.87 Hz, 4H). ^19F NMR (565 MHz, CHLOROFORM-d) 6-115.92 (br s, 1F). OGA Enzyme Inhibition Biochemical Assay
Recombinant full length human OGA enzyme was purchased from Origene. 4-MUGlCNAc substrate was purchased from Sigma. All other reagents were purchased from Sigma or Fisher. Assay buffer consists of the McIlvaine buffer system, pH 6.4 (0.2M Na2HPO4 mixed with 0.1M citric acid) and 0.01% BSA. Reactions consist of 1 nM OGA, 100 μM 4-MUGlcNAc (Km), and compound in a final volume of 10 μl. Reactions were incubated for 90 minutes at room temperature and quenched with 40 μl of 3M glycine, pH 10 and read on a Perkin Elmer Envision plate reader (Ex: 355 nm/Em: 460 nm). Compounds were tested with a 10-point dose-response starting from 20 μM with a 4-fold dilution. Data, as presented in Table 1 below, was fit using GraphPad Prism using a 4-parameter fit with variable slope.
With `CC(=O)Nc1ncc(CN2C[C@H](Oc3ccnc4ccsc34)C[C@@H]2C)s1` [Example 5, N-(5-(((2S,4R)-2-methyl-4-(thieno[3,2-b]pyridin-7-yloxy)pyrrolidin-1-yl)methyl)thiazol-2-yl)acetamide], the IC50 was under 1 nM.
As to `CC(=O)Nc1nc(F)c(CN2C[C@H](Oc3ccc4ncoc4c3)C[C@@H]2C)s1` [Example 76, N-(5-(((2S,4R)-4-(benzo[d]oxazol-6-yloxy)-2-methylpyrrolidin-1-yl)methyl)-4-fluorothiazol-2-yl)acetamide], the IC50 was under 1 nM.
For the molecule `CC(=O)Nc1ncc(CN2C[C@H](Oc3ccc4ccccc4n3)C[C@@H]2C)s1` [Example 8, N-(5-(((2S,4R)-2-methyl-4-(quinolin-2-yloxy)pyrrolidin-1-yl)methyl)thiazol-2-yl)acetamide], the IC50 is under 1 nM.
In the case of `CC(=O)Nc1ncc(CN2C[C@H](Oc3cc4ccccc4nc3C#N)C[C@@H]2C)s1` [Example 31, N-(5-(((2S,4R)-4-((2-cyanoquinolin-3-yl)oxy)-2-methylpyrrolidin-1-yl)methyl)thiazol-2-yl)acetamide] it was 9.7 nM.
For the molecule `CC(=O)Nc1ncc(CN2C[C@H](Oc3cccc4nn(C)cc34)C[C@@H]2C)s1` [Example 83, N-(5-(((2S,4R)-2-methyl-4-((2-methyl-2H-indazol-4-yl)oxy)pyrrolidin-1-yl)methyl)thiazol-2-yl)acetamide], the IC50 turned out to be 1.1 nM.
The value for `CC(=O)Nc1ncc(CN2C[C@H](Oc3ccnc4cc(F)ccc34)C[C@@H]2C)s1` [Example 17, N-(5-(((2S,4R)-4-((7-fluoroquinolin-4-yl)oxy)-2-methylpyrrolidin-1-yl)methyl)thiazol-2-yl)acetamide] was under 1 nM.
In the case of `CC(=O)Nc1nc(F)c(CN2C[C@H](Oc3ccnc4nn(C)cc34)C[C@@H]2C)s1` [Example 140, N-(4-fluoro-5-(((2S,4R)-2-methyl-4-((2-methyl-2H-pyrazolo[3,4-b]pyridin-4-yl)oxy)pyrrolidin-1-yl)methyl)thiazol-2-yl)acetamide] it was under 1 nM.
On to `CC(=O)Nc1ncc(CN2C[C@H](Oc3ccc4c(Cl)nccc4c3)C[C@@H]2C)s1` [Example 1, N-(5-(((2S,4R)-4-((1-chloroisoquinolin-6-yl)oxy)-2-methylpyrrolidin-1-yl)methyl)thiazol-2-yl)acetamide], for which the 50% inhibitory concentration (IC50) is under 1 nM.
The value for `CC(=O)Nc1nc(F)c(CN2C[C@H](Oc3ncnc4ncccc34)C[C@@H]2C)s1` [Example 119, N-(4-fluoro-5-(((2S,4R)-2-methyl-4-(pyrido[2,3-d]pyrimidin-4-yloxy)pyrrolidin-1-yl)methyl)thiazol-2-yl)acetamide] was 1.1 nM; that for `CC(=O)Nc1ncc(CN2C[C@H](Oc3ccc4nn(C)cc4c3)C[C@@H]2C)s1` [Example 44, N-(5-(((2S,4R)-2-methyl-4-((2-methyl-2H-indazol-5-yl)oxy)pyrrolidin-1-yl)methyl)thiazol-2-yl)acetamide] was under 1 nM; that for `CC(=O)Nc1ncc(CN2C[C@H](Oc3nccc4occc34)C[C@@H]2C)s1` [Example 22, N-(5-(((2S,4R)-4-(furo[3,2-c]pyridin-4-yloxy)-2-methylpyrrolidin-1-yl)methyl)thiazol-2-yl)acetamide] was 2.1 nM.
The value for `CC(=O)Nc1nc(F)c(CN2C[C@H](Oc3ncnc4cnccc34)C[C@@H]2C)s1` [Example 118, N-(4-fluoro-5-(((2S,4R)-2-methyl-4-(pyrido[3,4-d]pyrimidin-4-yloxy)pyrrolidin-1-yl)methyl)thiazol-2-yl)acetamide] was under 1 nM; that for `CC(=O)Nc1nc(F)c(CN2C[C@H](Oc3ccn4nccc4c3)C[C@@H]2C)s1` [Example 49, N-(4-fluoro-5-(((2S,4R)-2-methyl-4-(pyrazolo[1,5-a]pyridin-5-yloxy)pyrrolidin-1-yl)methyl)thiazol-2-yl)acetamide] was under 1 nM.
The value for `CC(=O)Nc1ncc(CN2C[C@H](Oc3nccc4sccc34)C[C@@H]2C)s1` [Example 24, N-(5-(((2S,4R)-2-methyl-4-(thieno[3,2-c]pyridin-4-yloxy)pyrrolidin-1-yl)methyl)thiazol-2-yl)acetamide] was 2.5 nM.
As for `CC(=O)Nc1ncc(CN2C[C@H](Oc3ccnc4ccoc34)C[C@@H]2C)s1` [Example 48, N-(5-(((2S,4R)-4-(furo[3,2-b]pyridin-7-yloxy)-2-methylpyrrolidin-1-yl)methyl)thiazol-2-yl)acetamide], the IC50 is under 1 nM.
`CC(=O)Nc1ncc(CN2C[C@H](Oc3ccc4ncoc4c3)C[C@@H]2C)s1` [Example 45, N-(5-(((2S,4R)-4-(benzo[d]oxazol-6-yloxy)-2-methylpyrrolidin-1-yl)methyl)thiazol-2-yl)acetamide]: the half-inhibitory concentration (IC50) is under 1 nM.
In the case of `COc1cc2cnc(O[C@@H]3C[C@H](C)N(Cc4sc(NC(C)=O)nc4F)C3)cc2cc1F` [Example 130, N-(4-fluoro-5-(((2S,4R)-4-((6-fluoro-7-methoxyisoquinolin-3-yl)oxy)-2-methylpyrrolidin-1-yl)methyl)thiazol-2-yl)acetamide] it was under 1 nM; in that of `CC(=O)Nc1ncc(CN2C[C@H](Oc3cc4c(Cl)ccnc4cc3F)C[C@@H]2C)s1` [Example 7, N-(5-(((2S,4R)-4-((4-chloro-7-fluoroquinolin-6-yl)oxy)-2-methylpyrrolidin-1-yl)methyl)thiazol-2-yl)acetamide], under 1 nM; in that of `CC(=O)Nc1nc(F)c(CN2C[C@H](Oc3cnc4nc(C)oc4c3)C[C@@H]2C)s1` [Example 169, N-(4-Fluoro-5-(((2S,4R)-2-methyl-4-((2-methyloxazolo[4,5-b]pyridin-6-yl)oxy)pyrrolidin-1-yl)methyl)thiazol-2-yl)acetamide], under 1 nM.
The value for `CC(=O)Nc1ncc(CN2C[C@H](Oc3nccc4oc(C)cc34)C[C@@H]2C)s1` [Example 16, N-(5-(((2S,4R)-2-methyl-4-((2-methylfuro[3,2-c]pyridin-4-yl)oxy)pyrrolidin-1-yl)methyl)thiazol-2-yl)acetamide] was under 1 nM.
The value for `CC(=O)Nc1ncc(CN2C[C@H](Oc3cccc4nccn34)C[C@@H]2C)s1` [Example 63, N-(5-(((2S,4R)-4-(imidazo[1,2-a]pyridin-5-yloxy)-2-methylpyrrolidin-1-yl)methyl)thiazol-2-yl)acetamide] was under 1 nM; that for `CC(=O)Nc1ncc(CN2C[C@H](Oc3nccc4occc34)C[C@@H]2C)s1` [Example 69, N-(5-(((2S,4R)-4-(furo[3,2-c]pyridin-4-yloxy)-2-methylpyrrolidin-1-yl)methyl)thiazol-2-yl)acetamide] was 2.7 nM; that for `CC(=O)Nc1nc(F)c(CN2C[C@H](Oc3nncc4cc(F)ccc34)C[C@@H]2C)s1` [Example 133, N-(4-fluoro-5-(((2S,4R)-4-((6-fluorophthalazin-1-yl)oxy)-2-methylpyrrolidin-1-yl)methyl)thiazol-2-yl)acetamide] was under 1 nM.
Turning to `CC(=O)Nc1nc(F)c(CN2C[C@H](Oc3ccc4cccnc4n3)C[C@@H]2C)s1` [Example 82, N-(5-(((2S,4R)-4-((1,8-naphthyridin-2-yl)oxy)-2-methylpyrrolidin-1-yl)methyl)-4-fluorothiazol-2-yl)acetamide], the IC50 is under 1 nM.

The IC50 is the midpoint of a concentration-inhibition curve.
